Measured values from BindingDB's records for doi:10.1016/j.bmcl.2014.05.036 (AstraZeneca, 2014).

Experiments:
[1] = Inhibition of human BCL-2 overexpressed in mouse FDC-P1 cells assessed as cell viability after 24 hrs by Cell Titer Glo assay
[2] = Inhibition of human BCL-xL overexpressed in mouse FDC-P1 cells assessed as cell viability after 24 hrs by Cell Titer Glo assay

Row | SMILES | IC50 [1] | IC50 [2]
1 | CN(C)C(=O)COc1ccc(-c2ccc(Cl)cc2)c(CN2CCN(c3ccc(C(=O)NS(=O)(=O)c4ccc(N[C@H](CCN5CCOCC5)CSc5ccccc5)c(S(=O)(=O)C(F)(F)F)c4)cc3)CC2)c1 | 187 nM | 2090 nM
2 | CN(C)C(=O)COc1cccc(-c2ccc(Cl)cc2)c1CN1CCN(c2ccc(C(=O)NS(=O)(=O)c3ccc(N[C@H](CCN4CCOCC4)CSc4ccccc4)c(S(=O)(=O)C(F)(F)F)c3)cc2)CC1 | 45 nM | 226 nM
3 | O=C(NS(=O)(=O)c1ccc(N[C@H](CCN2CCOCC2)CSc2ccccc2)c(S(=O)(=O)C(F)(F)F)c1)c1cnc(N2CCN(Cc3ccccc3-c3ccc(Cl)cc3)CC2)nc1 | 340 nM | 2090 nM
4 | N#CC1(Cc2ccccc2-c2ccc(Cl)cc2)CCN(c2ccc(C(=O)NS(=O)(=O)c3ccc(N[C@H](CCN4CCOCC4)CSc4ccccc4)c(S(=O)(=O)C(F)(F)F)c3)cc2)CC1 | 545 nM | 2820 nM
5 | CN(C)CCOc1cccc(-c2ccc(Cl)cc2)c1CN1CCN(c2ccc(C(=O)NS(=O)(=O)c3ccc(N[C@H](CCN4CCOCC4)CSc4ccccc4)c(S(=O)(=O)C(F)(F)F)c3)cc2)CC1 | 4 nM | 33 nM
6 | O=C(NS(=O)(=O)c1ccc(N[C@H](CCN2CCOCC2)CSc2ccccc2)c(S(=O)(=O)C(F)(F)F)c1)c1ccc(N2CCC([S@@+]([O-])c3ccccc3-c3ccc(Cl)cc3)CC2)cc1 | 434 nM | 1720 nM
7 | CN(C)CCOc1ccc(-c2ccc(Cl)cc2)c(CN2CCN(c3ccc(C(=O)NS(=O)(=O)c4ccc(N[C@H](CCN5CCOCC5)CSc5ccccc5)c(S(=O)(=O)C(F)(F)F)c4)cc3)CC2)c1 | 22 nM | 138 nM
8 | O=C(NS(=O)(=O)c1ccc(N[C@H](CCN2CCOCC2)CSc2ccccc2)c(S(=O)(=O)C(F)(F)F)c1)c1ccc(N2CCN(Cc3ccccc3-c3ccc(Cl)cc3)CC2)cc1 | 14 nM | 64 nM
